According to patent publication US12485110B2, “Use of ergothioneine for extending lifespan or improving healthspan” (NANJING NUTRABUILDING BIO-TECH CO., LTD., priority 2022, dated 2025):
Entries after “also recorded” stand apart in the source; their conditions may differ.

Key:
C. elegans [1] = experiment: Growth and development (growth and toxicity) assay; assay type: in vivo
Source text: C. elegans was used in this study because it has advantages including having all the physiological properties of an animal, the ability to replicate human diseases, and a fast life cycle. The body of C. elegans is encased in a selectively permeable cuticle that only permits some compounds to be absorbed efficiently through the skin, so the most reliable mechanism for delivering compounds to the worms is through ingestion. Water-soluble compounds permeate the media and food and are readily taken up by the worms.
Making culturing plates with ergothioneine: C. elegans is usually grown in the laboratory using E. coli as a food source. Nematode Growth Medium (NGM) plates have been prepared by aseptically pouring NGM agar into petri plates. Ergothioneine was dissolved in water to make a working solution of 0.5 M and then mixed with E. coli liquid culture before seeding on NGM agar plates. The seeding spots were dried slowly, allowing ergothioneine to diffuse into the food bacteria and the agar for at least 24 hours before worms are introduced. The indicated ergothioneine dosages (0, 640 nM, 3.2 μM, 16 μM, 80 μM, 400 μM, 2 mM, and 10 mM) are based on the total volume of the plates.
High-resolution imaging and automated detection were used to precisely measure the growth rate of C. elegans worms from hatching to the first day of adulthood (total of 4 days). The C. elegans growth and development assay is highly sensitive and widely used in toxicology studies. Performing this test over a range of doses helps to identify a set of doses that have a physiological impact and exclude dose ranges that are likely too toxic to benefit lifespan.

C. elegans [2] = experiment: Lifespan assay (Automated Lifespan Machine); assay type: in vivo; conditions: for Maximum lifespan: 95th percentile of lifespans; for Median lifespan: N2 wild type, day 0 = day 1 of adulthood; for Mean lifespan: area under survival curve; for Lifespan / survival relative to vehicle control (in words): 5.0 mM (highest treatment group)
Source text: N2 (Bristol) wild type strain has been used in this application.
To prevent chemical modification or metabolism of the test article by the food bacteria, worms were fed on a lawn of UV-killed bacteria (UV-i bacteria). An overnight culture of E. coli strain WP-2 was pelleted, washed, filtered, and irradiated. A suspension of UV-i bacteria was spotted on NGM agar containing Streptomycin to inhibit the growth of contaminating bacteria. The quantity and distribution of food bacteria were calibrated to ensure adequate access to food for the duration of assay while maintaining visibility of the worms.
The ALM used herein is based on the Caenorhabditis elegans lifespan machine published by Stroustrup et. al (Stroustrup, N. et al. The Caenorhabditis elegans Lifespan Machine. Nat Methods 10, 665-670 (2013)), with proprietary modifications to improve temperature stability and image acquisition. The scanner unit consists of a modified EPSON V850 and images are processed and analyzed using the ALM software (see id.). The machine time-of-death calls are trained and validated using the “storyboarding” feature of the ALM software.
The lifespan assay was designed and performed according to published and validated methods (Amrit, F. R. G., Ratnappan, R., Keith, S. A. & Ghazi, A. The C. elegans lifespan assay toolkit. Methods 68, 465-475 (2014)), using a modified version of the Automated Lifespan Machine (Stroustrup, N. et al. The Caenorhabditis elegans Lifespan Machine. Nat Methods 10, 665-670 (2013)). Worms were age synchronized by bleaching and eggs were plated directly onto NGM agar seeded with UV-i bacteria (Day 1, hatch). On Day 3, when the worms had reached the late L4 stage, they were transferred to dishes containing 100 μM 5-Fluorodeoxyuridine (FUdR) to suppress progeny. On day 5, the worms were washed off the dishes, and 30-50 worms were plated on each scanner dish. Plates were immobilized inverted on the bed of an Automated Lifespan Machine which scanned two images per hour of the plates continuously for the next 40 days.
Time of death calls exported from the ALM software was analyzed and plotted using the Lifelines software package developed by Cam Davidson-Pilon et. al (Lifelines Version: v0.25.9). Additional analysis performed using the OASIS2 analysis software (Seong Kyu Han et. al. OASIS 2: online application for survival analysis 2 with features for the analysis of maximal lifespan and healthspan in aging research. Oncotarget. 7:56147-56152. (2016)).
The lifespan assay was initiated by expanding all replicate groups to more than 1000 worms, then synchronizing by bleaching and allowing larval worms to hatch and arrest. To eliminate the effect of bacterial metabolism and growth on lifespan of C. elegans (wild type, and not over express β-amyloid peptide) worms, synchronized worms were only exposed to dead food bacteria. To suppress progeny, worms were transferred to media containing 5-Fluorodeoxyuridine (FUdR) within 54-60 hours post-plating. Worms were inspected 24 and 48 hours after this transfer to confirm infertility. Finally, the worms were inspected for general health and morphology before transferring to scanner plates. The scanner plates were incubated for an additional 2 days and inspected again before loading onto scanners.
To obtain high-resolution lifespan data and eliminate confounding factors such as worm handling and operator bias, lifespan data was collected using an Automated Lifespan Machine (ALM) (Stroustrup, N. et al. The Caenorhabditis elegans Lifespan Machine. Nat Methods 10, 665-670 (2013)). Three biological replicates, derived from synchronizing three independently maintained lines of N2 worms, were distributed across instruments. Images of the worms were then collected for the next 35 days with no interruption or manipulations. Some plates were excluded after quality checks, but plate number and worm count for all replicates exceeded the threshold for statistical significance (Table 1, row 1).

C[N+](C)(C)[C@@H](Cc1c[nH]c(=S)[nH]1)C(=O)[O-] [Ergo, Ergothioneine]
Number and size of worms (FIG. 1) (C. elegans [1]; 16 μM and 400 μM, L4 and day 1 adult): comparable number and size | Number of worms (FIG. 1) (C. elegans [1]; 10 mM, L4 and day 1 adult stages): less worms | Size of young adults (FIG. 2) (C. elegans [1]; 10 mM, day 1 adult stage): smaller than normal | Growth rate (worm size, FIG. 2) (C. elegans [1]; concentrations up to 2 mM, day 1 adult stage): largely unaffected | Growth rate (worm size, FIG. 2) (C. elegans [1]; concentrations up to 10 mM, L4 stage): largely unaffected | Age in days at 25% mortality (C. elegans [2]; 0.1 mM): 17.97 days | Age in days at 50% mortality (C. elegans [2]; 0.1 mM): 24.16 days | Age in days at 75% mortality (C. elegans [2]; 0.1 mM): 28.15 days | Age in days at 90% mortality (C. elegans [2]; 0.1 mM): 30.83 days | Age in days at 100% mortality (C. elegans [2]; 0.1 mM): 39 days | Dose dependence of lifespan (Kaplan-Meier, FIG. 4A) (C. elegans [2]; 0.1 mM, 0.5 mM and 5.0 mM): dose-dependent increase in lifespan | Maximum lifespan (C. elegans [2]; 0.1 mM): 33.2 days | Median lifespan (C. elegans [2]; 0.1 mM): 24.2 days | Mean lifespan (C. elegans [2]; 0.1 mM): 23.4 days | Age in days at 25% mortality (C. elegans [2]; 0.5 mM): 18.05 days | Age in days at 50% mortality (C. elegans [2]; 0.5 mM): 24.22 days | Age in days at 75% mortality (C. elegans [2]; 0.5 mM): 28.37 days | Age in days at 90% mortality (C. elegans [2]; 0.5 mM): 30.84 days | Age in days at 100% mortality (C. elegans [2]; 0.5 mM): 37.26 days | Maximum lifespan (C. elegans [2]; 0.5 mM): 33.3 days | Median lifespan (C. elegans [2]; 0.5 mM): 24.2 days | Mean lifespan (C. elegans [2]; 0.5 mM): 23.5 days | Age in days at 25% mortality (C. elegans [2]; 5.0 mM): 21.04 days | Age in days at 50% mortality (C. elegans [2]; 5.0 mM): 25.92 days | Age in days at 75% mortality (C. elegans [2]; 5.0 mM): 29.73 days | Age in days at 90% mortality (C. elegans [2]; 5.0 mM): 32.05 days | Age in days at 100% mortality (C. elegans [2]; 5.0 mM): 38.81 days | Lifespan / survival relative to vehicle control (in words) (C. elegans [2]): higher survival than the vehicle control at all timepoints | Lifespan / survival relative to vehicle control (in words) (C. elegans [2]; listed as Ergothioneine): significant positive increase in lifespan; also recorded: statistically significant shift in survival | Lifespan increase compared with Resveratrol positive control (C. elegans [2]; 5.0 mM vs 0.1 mM Resveratrol, log-rank tests): similarly to, but slightly less than the Resveratrol positive control | Maximum lifespan (C. elegans [2]; 5.0 mM): 34.6 days | Median lifespan (C. elegans [2]; 5.0 mM): 25.9 days | Mean lifespan (C. elegans [2]; 5.0 mM): 25.3 days
